Experimental data taken from article PMC10686834, “Targeting myeloid chemotaxis to reverse prostate cancer therapy resistance” (Nature, 2023).
Read-outs that look alike come from different tables or passages of the source.

Experiments:
blood neutrophils = assay: Peripheral blood neutrophil counts and NLR on treatment; format: in vivo, human
Method: Secondary endpoints were:(i) the rate of objective response, with objective response defined as confirmed soft tissue objective response by Response Evaluation Criteria in Solid Tumors v.1.1 in those with measurable disease, and/or PSA decline ≥50% confirmed 4 weeks or later, and/or CTC count conversion from ≥5 per 7.5 ml of blood at baseline to <5 per 7.5 ml of blood at nadir; (ii) pharmacokinetic parameters, including maximum concentration, area under the concentration–time curve; and (iii) pharmacodynamic changes including identifying patients whose blood NLR, neutrophil, and intratumour myeloid cell density decrease. Exploratory endpoints included blood cytokine levels and evaluation of tumour molecular profile on response.
The association between myeloid cell densities and NLR was evaluated in two cohorts (Supplementary Table 1). Cohort 1 consisted of 48 mCRPC biopsies from patients treated at ICR/RMH, Oncology Institute of Southern Switzerland and Belfast City Hospital between 2012 and 2021. All patients provided informed consent, and enrolled onto institutional protocols approved by the local RECs (REC reference: 04/Q0801/60, 11/LO/2019). The validation cohort consisted of 57 mCRPC biopsies from patients treated at ICR/RMH between 2012 and 2016 under institutional protocols approved by the local REC (REC references: 04/Q0801/60, 2017-01002 CE TI 3237). […]

CYP1A2 = tested on: CYP1A2; set-up: method as in AZD5069 Investigator Brochure (IB); conditions: at concentrations of up to 100 μmol/L; ref AZD5069 Investigator Brochure (IB); cited from earlier work
CYP2A6 = tested on: CYP2A6; set-up: method as in AZD5069 Investigator Brochure (IB); conditions: at concentrations of up to 100 μmol/L; ref AZD5069 Investigator Brochure (IB); cited from earlier work
CYP2C8 = tested on: CYP2C8; set-up: method as in AZD5069 Investigator Brochure (IB); conditions: ref AZD5069 Investigator Brochure (IB); cited from earlier work
CYP2B6 = tested on: CYP2B6; set-up: method as in AZD5069 Investigator Brochure (IB); conditions: human hepatocytes; ref AZD5069 Investigator Brochure (IB); cited from earlier work
CYP3A4 = tested on: CYP3A4; set-up: method as in AZD5069 Investigator Brochure (IB); conditions: co-administration with ketoconazole; ref AZD5069 Investigator Brochure (IB); cited from earlier work
rat = conditions: 1-month and 6-month rat studies; ref AZD5069 Investigator Brochure (IB); cited from earlier work
[1] = tested on: patients with advanced solid tumours or metastatic pancreatic ductal adenocarcinoma; conditions: ref AZD5069 IB (07 July 2019), cited from earlier work
[2] = 109 patients in two oncology studies

SMILES: C[C@@H](Oc1cc(NS(=O)(=O)N2CCC2)nc(SCc2cccc(F)c2F)n1)[C@@H](O)CO [AZD5069]
- effect on blood neutrophil counts and NLRs (blood neutrophils; 40 mg BD to 320 mg BD): decreased blood neutrophil counts and NLRs in a dose-dependent manner
- on-target reduction in blood neutrophil counts (blood neutrophils; AZD5069 >40 mg BD): at least 30%
- inhibition of CYP1A2 (CYP1A2): not an inhibitor
- inhibition of CYP2A6 (CYP2A6): not an inhibitor
- IC50 (CYP2C8): ~100 µM
- induction of CYP2B6 activity (CYP2B6): concentration dependent induction
- increased exposure (AUC) (CYP3A4): 2.1 fold
- increased exposure (Cmax) (CYP3A4): 1.6 fold
- dose with enlarged mandibular lymph nodes in both sexes (rat): ≥ 40 mg/kg BD
- causally-related AEs that led to treatment discontinuation ([1]; 109 patients in two oncology studies (four patients)): 3.7%
- causally-related AEs of CTCAE ≥Grade 3: fatigue [1, 2]: 4.6%
- causally-related AEs of CTCAE ≥Grade 3: neutropenia [1, 2]: 11.0%
- causally-related AEs of CTCAE ≥Grade 3: neutrophil count decreased [1, 2]: 4.6%
- causally-related AEs: decreased appetite [1, 2]: 20.2%
- causally-related AEs: diarrhoea [1, 2]: 10.1%
- causally-related AEs: fatigue [1, 2]: 22.9%
- causally-related AEs: nausea [1, 2]: 11.9%
- causally-related AEs: neutropenia [1, 2]: 15.6%
- causally-related AEs: neutrophil count decreased [1, 2]: 11.0%
- causally-related SAEs [1, 2]: 9.2%
- fatal AE considered treatment-related [1, 2]: no fatal AE
- most common AEs: decreased appetite [1, 2]: 35.8%
- most common AEs: fatigue [1, 2]: 38.5%
- most common AEs: nausea [1, 2]: 28.4%
- patients with adverse events considered related to study treatment [1, 2]: 73.4%
- neutrophil count decreased ([1]; Study NCT02499328, 40 mg BD dose (4/64)): 6.3%
- neutrophil count decreased ([1]; Study NCT02499328, 80 mg BD dose (6/25)): 24%
